Test results published in patent publication US20230150974A1 (Foghorn Therapeutics Inc., priority 2020, published 2023).
Where a name gives a salt, the structure may show the parent alone.

Legend:
[1] = target: T1, HiBiT-BRM (Homo sapiens, UniProt P51531); assay: HiBiT-BRM cell-based degradation assay (Nano-Glo HiBiT Lytic Detection); details: HeLa cells expressing HiBiT-BRM, 24 h; for DC50: read-out: BRM HiBit Degradation IC50
T1 construct: expressed in transfected cells
Summary of the method: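 HeLa cells stably expressing HiBiT-tagged BRM were treated for 24 h, then lysed with LgBiT-containing Nano-Glo reagent and luminescence read. % degradation scaled between DMSO (high control) and 2 μM reference BRM/BRG1 degrader (low control).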

[2] = target: T2, HiBit-BRG1 (Homo sapiens, UniProt P51532); assay: HiBit-BRG1 cell-based degradation assay (Nano-Glo HiBiT Lytic Detection); details: HeLa cells expressing HiBit-BRG1 and LgBit, 24 h; for DC50: read-out: BRG1 HiBit Degradation IC50; for Dmax: read-out: BRG1 HiBit Degradation Maximum (%)
T2 construct: expressed in transfected cells
Summary of the method: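 Percent degradation derived from lytic HiBiT signal, normalized to DMSO-treated cells and to cells given 2 μM of a known BRM/BRG1 degrader. The HeLa line stably expressed HiBit-BRG1 and LgBit; treatment lasted 24 h at 5000 cells per well.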

T2 sequence (P51532 whole entry): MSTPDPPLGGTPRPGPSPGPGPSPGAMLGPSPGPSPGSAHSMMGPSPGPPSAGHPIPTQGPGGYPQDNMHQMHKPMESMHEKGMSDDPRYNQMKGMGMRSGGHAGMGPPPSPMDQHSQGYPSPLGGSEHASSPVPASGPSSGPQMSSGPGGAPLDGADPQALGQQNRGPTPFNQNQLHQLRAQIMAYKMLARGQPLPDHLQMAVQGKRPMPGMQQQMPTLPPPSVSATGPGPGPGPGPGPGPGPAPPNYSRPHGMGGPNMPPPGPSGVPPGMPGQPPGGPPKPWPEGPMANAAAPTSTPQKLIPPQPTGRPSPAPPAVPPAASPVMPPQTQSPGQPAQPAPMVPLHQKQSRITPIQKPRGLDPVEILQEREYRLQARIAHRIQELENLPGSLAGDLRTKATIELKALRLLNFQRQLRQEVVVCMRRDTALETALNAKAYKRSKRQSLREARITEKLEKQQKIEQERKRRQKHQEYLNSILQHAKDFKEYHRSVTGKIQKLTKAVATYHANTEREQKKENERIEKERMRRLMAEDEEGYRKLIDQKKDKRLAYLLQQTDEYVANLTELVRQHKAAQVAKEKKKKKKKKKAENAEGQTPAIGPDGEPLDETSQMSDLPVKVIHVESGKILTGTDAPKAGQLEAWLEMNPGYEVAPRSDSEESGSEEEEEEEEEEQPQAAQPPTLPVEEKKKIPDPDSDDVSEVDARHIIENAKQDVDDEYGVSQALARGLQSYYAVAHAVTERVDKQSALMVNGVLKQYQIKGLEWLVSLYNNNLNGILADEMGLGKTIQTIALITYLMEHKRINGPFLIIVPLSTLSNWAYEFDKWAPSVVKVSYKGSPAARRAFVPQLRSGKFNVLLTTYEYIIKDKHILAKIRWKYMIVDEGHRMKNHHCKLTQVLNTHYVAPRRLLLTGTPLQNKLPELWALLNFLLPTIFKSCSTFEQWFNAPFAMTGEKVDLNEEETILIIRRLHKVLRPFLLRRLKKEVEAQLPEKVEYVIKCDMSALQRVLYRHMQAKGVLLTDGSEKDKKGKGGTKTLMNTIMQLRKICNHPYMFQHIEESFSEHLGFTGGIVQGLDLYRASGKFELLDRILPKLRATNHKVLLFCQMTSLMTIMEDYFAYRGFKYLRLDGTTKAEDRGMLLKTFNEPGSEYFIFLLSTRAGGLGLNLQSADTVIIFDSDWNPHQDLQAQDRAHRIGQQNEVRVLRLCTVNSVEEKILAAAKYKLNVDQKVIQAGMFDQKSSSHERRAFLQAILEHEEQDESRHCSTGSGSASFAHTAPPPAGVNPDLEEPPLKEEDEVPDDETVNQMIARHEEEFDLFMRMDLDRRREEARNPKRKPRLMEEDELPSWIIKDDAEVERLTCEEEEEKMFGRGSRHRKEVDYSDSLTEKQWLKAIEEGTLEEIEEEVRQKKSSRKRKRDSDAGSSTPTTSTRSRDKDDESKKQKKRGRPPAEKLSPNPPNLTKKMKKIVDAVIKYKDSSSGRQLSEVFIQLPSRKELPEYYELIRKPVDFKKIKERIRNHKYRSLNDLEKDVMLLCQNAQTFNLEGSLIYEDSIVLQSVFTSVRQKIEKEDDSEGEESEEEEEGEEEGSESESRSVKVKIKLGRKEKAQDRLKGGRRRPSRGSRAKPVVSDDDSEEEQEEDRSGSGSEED
T1 sequence (P51531 whole entry): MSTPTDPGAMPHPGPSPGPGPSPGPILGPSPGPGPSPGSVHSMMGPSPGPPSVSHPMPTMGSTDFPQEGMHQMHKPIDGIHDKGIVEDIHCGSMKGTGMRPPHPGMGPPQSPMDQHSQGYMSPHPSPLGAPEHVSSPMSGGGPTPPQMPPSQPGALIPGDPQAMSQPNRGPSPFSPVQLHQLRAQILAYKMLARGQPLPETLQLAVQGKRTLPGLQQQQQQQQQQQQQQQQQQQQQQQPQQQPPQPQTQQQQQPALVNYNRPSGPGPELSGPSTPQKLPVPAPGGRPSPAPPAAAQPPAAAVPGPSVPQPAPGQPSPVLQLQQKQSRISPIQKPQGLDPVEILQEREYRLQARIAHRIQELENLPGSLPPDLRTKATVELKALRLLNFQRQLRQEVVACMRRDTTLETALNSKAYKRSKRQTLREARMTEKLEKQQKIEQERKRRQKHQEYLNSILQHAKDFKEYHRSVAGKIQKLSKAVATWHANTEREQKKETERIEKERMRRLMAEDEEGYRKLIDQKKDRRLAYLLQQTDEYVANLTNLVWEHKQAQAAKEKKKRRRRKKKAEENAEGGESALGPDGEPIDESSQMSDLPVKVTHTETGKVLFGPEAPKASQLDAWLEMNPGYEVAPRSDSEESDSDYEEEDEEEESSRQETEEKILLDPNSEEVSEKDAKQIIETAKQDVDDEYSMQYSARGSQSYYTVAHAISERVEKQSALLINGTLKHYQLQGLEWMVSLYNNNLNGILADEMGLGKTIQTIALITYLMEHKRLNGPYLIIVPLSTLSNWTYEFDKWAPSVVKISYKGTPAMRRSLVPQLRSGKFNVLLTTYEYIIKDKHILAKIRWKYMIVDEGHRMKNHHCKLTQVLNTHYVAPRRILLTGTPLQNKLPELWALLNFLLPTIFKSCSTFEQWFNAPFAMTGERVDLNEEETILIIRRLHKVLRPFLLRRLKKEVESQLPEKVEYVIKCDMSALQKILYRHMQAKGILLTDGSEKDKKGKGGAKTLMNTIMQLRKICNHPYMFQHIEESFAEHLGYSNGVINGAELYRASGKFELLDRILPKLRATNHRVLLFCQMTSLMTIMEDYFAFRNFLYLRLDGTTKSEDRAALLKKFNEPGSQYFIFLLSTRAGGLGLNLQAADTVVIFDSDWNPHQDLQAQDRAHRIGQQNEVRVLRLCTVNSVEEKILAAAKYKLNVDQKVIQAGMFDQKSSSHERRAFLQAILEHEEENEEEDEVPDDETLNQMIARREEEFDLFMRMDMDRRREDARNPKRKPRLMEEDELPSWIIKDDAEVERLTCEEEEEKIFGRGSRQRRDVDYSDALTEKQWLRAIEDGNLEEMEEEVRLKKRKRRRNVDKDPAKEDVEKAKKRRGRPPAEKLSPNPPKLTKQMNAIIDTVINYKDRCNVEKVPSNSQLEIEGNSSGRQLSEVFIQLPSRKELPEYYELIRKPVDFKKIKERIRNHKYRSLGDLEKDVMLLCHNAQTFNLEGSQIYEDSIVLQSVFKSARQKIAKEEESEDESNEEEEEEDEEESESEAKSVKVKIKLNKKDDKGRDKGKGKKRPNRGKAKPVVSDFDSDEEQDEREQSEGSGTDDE

Compound	BRM HiBit Degradation Maximum (%) [1]	DC50 [1] [nM]	DC50 [2] [nM]	Dmax [2] [%]
Nc1nnc(-c2ccccc2O)cc1OCCc1ccc(CNCCCCNc2cccc3c2C(=O)N(C2CCC(=O)NC2=O)C3=O)cc1 (centres unmarked) [Compound 107, 4-[[4-([[4-(2-[[3-amino-6-(2-hydroxyphenyl)pyridazin-4-yl]oxy]ethyl)phenyl]methyl]amino)butyl]amino]-2-(2,6-dioxopiperidin-3-yl)isoindole-1,3-dione]	C (“C” indicates maximum degradation <50%)	> 1000	> 1000	> 50
Nc1nnc(-c2ccccc2O)cc1OCCc1ccc(CNCCCNc2cccc3c2C(=O)N(C2CCC(=O)NC2=O)C3=O)cc1 (centres unmarked) [Compound 108, 4-[[3-([[4-(2-[[3-amino-6-(2-hydroxyphenyl)pyridazin-4-yl]oxy]ethyl)phenyl]methyl]amino)propyl]amino]-2-(2,6-dioxopiperidin-3-yl)isoindole-1,3-dione, formic acid salt]	B (“B” indicates maximum degradation ≥50%)	> 10	> 1000	> 50
Nc1nnc(-c2ccccc2O)cc1OCCc1ccc(CNCCNc2cccc3c2C(=O)N(C2CCC(=O)NC2=O)C3=O)cc1 (centres unmarked) [Compound 109, 4-[[2-([[4-(2-[[3-amino-6-(2-hydroxyphenyl)pyridazin-4-yl]oxy]ethyl)phenyl]methyl]amino)ethyl]amino]-2-(2,6-dioxopiperidin-3-yl)isoindole-1,3-dione, formic acid salt]	C (“C” indicates maximum degradation <50%)	> 1000	> 1000	< 50
Nc1nnc(-c2ccccc2O)cc1OCCc1ccc(CNCCN2CCN(c3cccc4c3C(=O)N(C3CCC(=O)NC3=O)C4=O)CC2)cc1 (centres unmarked) [Compound 110, 4-[4-[2-([[4-(2-[[3-amino-6-(2-hydroxyphenyl)pyridazin-4-yl]oxy]ethyl)phenyl]methyl]amino)ethyl]piperazin-1-yl]-2-(2,6-dioxopiperidin-3-yl)isoindole-1,3-dione]	A (“A” indicates maximum degradation ≥75%)	> 10	> 100	> 50
Nc1nnc(-c2ccccc2O)cc1OCCc1ccc(CNC(=O)CCNc2cccc3nnn(C4CCC(=O)NC4=O)c(=O)c23)cc1 (centres unmarked) [Compound 111, N-(4-(2-((3-amino-6-(2-hydroxyphenyl)pyridazin-4-yl)oxy)ethyl)benzyl)-3-((3-(2,6-dioxopiperidin-3-yl)-4-oxo-3,4-dihydrobenzo[d][1,2,3]triazin-5-yl)amino)propanamide]	C (“C” indicates maximum degradation <50%)	> 1000	> 1000	< 50
Nc1nnc(-c2ccccc2O)cc1OCCc1ccc(CNCCCCCNc2cccc3c2C(=O)N(C2CCC(=O)NC2=O)C3=O)cc1 (centres unmarked) [Compound 112, 4-[[5-([[4-(2-[[3-amino-6-(2-hydroxyphenyl)pyridazin-4-yl]oxy]ethyl)phenyl]methyl]amino)pentyl]amino]-2-(2,6-dioxopiperidin-3-yl)isoindole-1,3-dione]	B (“B” indicates maximum degradation ≥50%)	> 10	> 1000	> 50
CN(CCCCCOc1cccc2c1C(=O)N(C1CCC(=O)NC1=O)C2=O)Cc1ccc(CCOc2cc(-c3ccccc3O)nnc2N)cc1 (centres unmarked) [Compound 113, 4-((5-((4-(2-((3-amino-6-(2-hydroxyphenyl)pyridazin-4-yl)oxy)ethyl)benzyl)(methyl)amino)pentyl)oxy)-2-(2,6-dioxopiperidin-3-yl)isoindoline-1,3-dione]	A (“A” indicates maximum degradation ≥75%)	> 10	> 1000	< 50
Nc1nnc(-c2ccccc2O)cc1OCCc1ccc(CNCCCC2CN(c3cccc4c3C(=O)N(C3CCC(=O)NC3=O)C4=O)C2)cc1 (centres unmarked) [Compound 114, 4-(3-(3-((4-(2-((3-amino-6-(2-hydroxyphenyl)pyridazin-4-yl)oxy)ethyl)benzyl)amino)propyl)azetidin-1-yl)-2-(2,6-dioxopiperidin-3-yl)isoindoline-1,3-dione]	B (“B” indicates maximum degradation ≥50%)	> 10	> 1000	> 50
Nc1nnc(-c2ccccc2O)cc1OCCc1ccc(CNCCOc2cccc3c2C(=O)N(C2CCC(=O)NC2=O)C3=O)cc1 (centres unmarked) [Compound 115, 4-[2-([[4-(2-[[3-amino-6-(2-hydroxyphenyl)pyridazin-4-yl]oxy]ethyl)phenyl]methyl]amino)ethoxy]-2-(2,6-dioxopiperidin-3-yl)isoindole-1,3-dione]	C (“C” indicates maximum degradation <50%)	> 1000	> 1000	< 50
Nc1nnc(-c2ccccc2O)cc1OCCc1ccc(CNCCCCCOc2ccc3c(c2)C(=O)N(C2CCC(=O)NC2=O)C3=O)cc1 (centres unmarked) [Compound 116, 5-((5-((4-(2-((3-amino-6-(2-hydroxyphenyl)pyridazin-4-yl)oxy)ethyl)benzyl)amino)pentyl)oxy)-2-(2,6-dioxopiperidin-3-yl)isoindoline-1,3-dione; diformic acid]	C (“C” indicates maximum degradation <50%)	> 1000	> 1000	< 50
Nc1nnc(-c2ccccc2O)cc1OCCc1ccc(CNCCCCCNc2ccc3c(c2)C(=O)N(C2CCC(=O)NC2=O)C3=O)cc1 (centres unmarked) [Compound 117, 5-[[5-([[4-(2-[[3-amino-6-(2-hydroxyphenyl)pyridazin-4-yl]oxy]ethyl)phenyl]methyl]amino)pentyl]amino]-2-(2,6-dioxopiperidin-3-yl)isoindole-1,3-dione]	B (“B” indicates maximum degradation ≥50%)	> 1000	> 1000	> 75
Nc1nnc(-c2cc(F)ccc2O)cc1OCCc1ccc(CNCCCCCOc2cccc3c2C(=O)N(C2CCC(=O)NC2=O)C3=O)cc1 (centres unmarked) [Compound 118, 4-[[5-([[4-(2-[[3-amino-6-(5-fluoro-2-hydroxyphenyl)pyridazin-4-yl]oxy]ethyl)phenyl]methyl]amino)pentyl]oxy]-2-(2,6-dioxopiperidin-3-yl)isoindole-1,3-dione;formic acid salt]	B (“B” indicates maximum degradation ≥50%)	> 100	> 1000	< 50
Nc1nnc(-c2cc(F)cc(Cl)c2O)cc1OCCc1ccc(CNCCCCCOc2cccc3c2C(=O)N(C2CCC(=O)NC2=O)C3=O)cc1 (centres unmarked) [Compound 119, 4-((5-((4-(2-((3-amino-6-(3-chloro-5-fluoro-2-hydroxyphenyl)pyridazin-4-yl)oxy)ethyl)benzyl)amino)pentyl)oxy)-2-(2,6-dioxopiperidin-3-yl)isoindoline-1,3-dione; formic acid salt]	C (“C” indicates maximum degradation <50%)	> 1000	> 1000	> 50
Nc1nnc(-c2ccccc2O)cc1OCCc1ccc(CNCCCCCNc2cccc3nnn(C4CCC(=O)NC4=O)c(=O)c23)cc1 (centres unmarked) [Compound 120, 3-(5-[[5-([[4-(2-[[3-amino-6-(2-hydroxyphenyl)pyridazin-4-yl]oxy]ethyl)phenyl]methyl]amino)pentyl]amino]-4-oxo-1,2,3-benzotriazin-3-yl)piperidine-2,6-dione]	B (“B” indicates maximum degradation ≥50%)	> 100	> 1000	> 50
